Source: patent US9629816B2, “Small molecule therapeutic compounds targeting thioesterase deficiency disorders and methods of using the same” (The United States of America, as represented by the …, priority 2011, dated 2017)

Tests used:
INCL lymphoblasts [1] = test: H2O2-induced apoptosis in INCL lymphoblasts (annexin V, FACS); format: cell-based, human; settings: 1 mM NtBuHA 12 hours
Experimental: To evaluate whether NtBuHA protects against oxidative stress-induced apoptosis in INCL lymphoblasts the cells were treated with 1 mM NtBuHA for 12 hours and then incubated with 500 μM H2O2 for 3 hours in presence or absence of NtBuHA (1 mM). Untreated INCL lymphoblasts were also treated with H2O2 for 3 hours. For the detection of apoptosis the cells were stained with annexin V using Apoptosis detection kit (Biovision) and analyzed by FACS (Guava EasyCyte Mini System, Millipore).
Moreover, in these cells antisense-mediated inhibition of PPT1 leads to increased apoptosis. […] In addition, increased neuronal apoptosis in the brain of PPT1-KO mice has also been reported. […] Thus, the inventors sought to determine whether the NtBuHA-treatment protects cultured immortalized INCL lymphoblasts from oxidative-stress mediated apoptosis. Cultured lymphoblasts from INCL patients were chosen because PPT1 is expressed in all tissues and PPT 1-deficiency in cultured lymphoblasts and fibroblasts from INCL patients show virtually identical pathological changes (accumulation of ceroid, GRODs and increased apoptosis) as are found in postmortem neuronal tissues from such patients. […] Apoptosis of the H2O2-treated cells was then quantitated by florescence activated cell sorting (FACS) analysis.

[2] = Cleavage of thioester linkage in [14C]palmitoyl-CoA, release of free [14C]palmitate (TLC, autoradiography); format: biochemical; settings: varying concentrations; various incubation times; [14C]palmitate production
Experimental: It has been reported that thioester linkages in s-acylated proteins are labile, and that compounds having nucleophilic properties are able to disrupt such linkages. Thus, the ability of derivatives of hydroxylamine to disrupt thioester linkages in s-acylated proteins was tested. Twelve HA-derivatives, described in Table 1, were screened for their ability to cleave thioester linkage in [^14C]palmitoyl˜CoA (a model thioester substrate of PPT1), mediating the release of free [^14C]palmitic acid, a process depicted in FIG. 2. […] [^14C]-palmitoyl-CoA was incubated for 1 hour with each of the HA derivatives and the reaction mixture was resolved by thin layer chromatography (TLC) followed by autoradiography. The free [^14C]-palmitate bands were visible and quantitated by densitometric analysis of the bands.

INCL lymphoblasts [3] = test: TEM analysis of GRODs in cultured INCL lymphoblasts; format: cell-based, human
Experimental: Transmission electron microsocopy (TEM) of INCL lymphoblasts and fibroblasts was performed. Briefly, cells were first treated with 250 μM NtBuHA for 3 weeks. Medium was replaced with fresh 250 μM of NtBuHA at every 72 hours. After treatment, cells were fixed with 2.5% glutaraldehyde in sodium phosphate buffer, washed three times with Millonig's phosphate buffer and stained with 2.5% uranyl acetate. Ultra-thin sections were then prepared using AO Reichert Ultracut ultramicrotome, stained with lead citrate and examined by using Zeiss EM10 CA.
Accordingly, untreated- and NtBuHA-treated cultured INCL lymphoblasts were analyzed using TEM.
For a therapeutic agent to be effective for INCL it must not only mediate depletion of ceroid by cleaving thioester linkage in S-acylated proteins but it must also prevent re-accumulation of ceroid. […] Some of these cultures were washed with PBS and then cultured for an additional 3 weeks in medium without NtBuHA before being analyzed by TEM.

PPT1-KO mice [4] = test: Survival of PPT1-KO mice; format: in vivo, mouse; settings: 5.5 months after initiation; treatment from 3 months of age; 52 out of 59 mice; untreated 10%
Experimental: (§1) All animal experiments were performed according to the institutional guidelines after an animal protocol was approved by the Animal Care and Use Committee of the National Institute of Child Health and Development, National Institutes of Health. PPT1-KO mice (a gift from Dr. S. L. Hofmann, University of Texas Southwestern Medical Center at Dallas, Dallas, Tex., USA) were generated by targeted disruption of the last exon in the PPT1 gene in embryonic stem (ES) cells. These mice were subsequently backcrossed for 10 generations with wild type C57BL/6 mice in order to obtain congenic C57 background and a breeding pair was provided by Dr. Mark Sands to start the inventors' colony. Animals were housed and maintained in a pathogen-free facility. Three-month old PPT-KO mice were given NtBuHA in their drinking water (1 mM NtBuHA and 1 mM NaCl).
For this study, 3-month old PPT1-KO mice were divided into two groups. In the first group, 55 mice received no treatment (control). In the second group, 59 mice were treated with NtBuHA. The status of all mice was monitored on a daily basis.

PPT1-KO mice [5] = test: Autofluorescence of brain tissues of PPT1-KO mice; format: in vivo, mouse; settings: vs untreated PPT1-KO mice (FIG. 13)
Experimental: as §1
Accumulation of intracellular autofluorescent lipopigment material in the brain and other tissues is a characteristic pathological finding in INCL patients and in PPT1-KO mice. Given this, it was hypothesized that NtBuHA-mediated depletion of GRODs may also reduce the intensity of autofluorescence in brain tissues of NtBuHA-treated PPT1-KO mice. Accordingly, a comparison of the autofluorescence of brain tissues from NtBuHA-treated PPT 1-KO mice, untreated PPT 1-KO mice, and wild-type litter-mates was performed.

Structure (SMILES): CC(C)(C)NO [NtBuHA, N-(tert-Butyl)hydroxylamine]
- H2O2-induced apoptosis, pre- and co-treated cells (INCL lymphoblasts [1]; then 500 μM H2O2 3 hours in presence of NtBuHA (FIG. 15)): no alteration in apoptosis above the base level
- H2O2-induced apoptosis, pretreated cells (INCL lymphoblasts [1]; then 500 μM H2O2 3 hours without NtBuHA (FIG. 15)): failed to induce apoptosis above the base level
- dose- and time-dependence of thioester linkage cleavage in [14C]palmitoyl-CoA [2]: cleaved the thioester linkage in a dose-dependent and time-dependent manner
- GRODs in INCL lymphoblasts (INCL lymphoblasts [3]; 250 μM for 3 weeks vs untreated controls (FIG. 9A-C)): either no GRODs, FIG. 9B, or a substantially reduced number of GRODs that were considerably smaller in size
- GRODs after withdrawal of treatment (INCL lymphoblasts [3]; 3 weeks treatment, then additional 3 weeks in medium without NtBuHA (FIG. 9D, 11)): withdrawal from the culture medium caused reaccumulation
- mice still alive (PPT1-KO mice [4]): 88%
- autofluorescence of brain tissues (PPT1-KO mice [5]): markedly reduced autofluorescence
